Molecular target: T1, 40K-PEG-rFVIIa (Homo sapiens, UniProt P08709)
T1 construct: Typically, Factor VII is cleaved between residues 152 and 153 to yield Factor VIIa; 40K-PEG (about 40 kDa PEG on a glycan)
T1 sequence (P08709 213-466 limits assumed): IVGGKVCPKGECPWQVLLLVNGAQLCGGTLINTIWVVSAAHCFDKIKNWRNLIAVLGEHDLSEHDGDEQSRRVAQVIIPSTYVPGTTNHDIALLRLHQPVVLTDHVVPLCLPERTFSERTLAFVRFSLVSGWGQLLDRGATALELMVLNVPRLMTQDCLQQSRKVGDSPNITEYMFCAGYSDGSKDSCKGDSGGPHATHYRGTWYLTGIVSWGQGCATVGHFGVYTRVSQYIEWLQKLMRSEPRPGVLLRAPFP
T1 sequence (P08709 61-212 limits assumed): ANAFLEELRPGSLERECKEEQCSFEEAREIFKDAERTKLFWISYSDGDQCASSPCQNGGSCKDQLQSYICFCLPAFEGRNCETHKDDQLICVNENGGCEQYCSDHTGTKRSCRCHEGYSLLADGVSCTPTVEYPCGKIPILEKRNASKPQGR
Assay: Stability experiment on 40K-PEG-rFVIIa in solution, clot activity by One-stage Coagulation Assay (Assay 4)
Format: biochemical
Details: 20 mg/ml 40K-PEG-rFVIIa, pH 7.0, 3 months at 25° C.
Procedure: Factor VII polypeptides may also be assayed for specific activities (“clot activity”) by using a one-stage coagulation assay (Assay 4). For this purpose, the sample to be tested is diluted in 50 mM PIPES-buffer (pH 7.2), 1% BSA and 40 μl is incubated with 40 μl of Factor VII deficient plasma and 80 μl of human recombinant tissue factor containing 10 mM Ca^2+ and synthetic phospholipids. Coagulation times (clotting times) are measured and compared to a standard curve using a reference standard in a parallel line assay.
In order to investigate the stabilizing effect of the compounds described by the current invention on Factor VIIa molecules in solution, a stability experiment was performed on 40K-PEG-rFVIIa.
The investigated formulations contained 0, 1, 10 or 30 mM n-propyloxycarbonyl-Phe(4-amidino)-Glu-Asn-Cha-(OEG)5-NH2, and all contained 20 mg/ml 40K-PEG-rFVIIa, 20 mM histidine, pH 7.0, 6% sucrose, 20 mM CaCl2, 0.5 mg/ml methionine. The samples were incubated 3 months at 25° C., and analysed for clot activity using the above-described “One-stage Coagulation Assay” (Assay 4) (see section “General Methods”).

## Propyloxycarbonyl-(4-amidino-Phe)-Glu-Asn-Cha-[HN—(CH2—CH2—O)2—(CH2)—C(═O)]5—NH2 [Example 1]
1 mM inhibitor
  Clot activity relative to the initial value: 18%
10 mM inhibitor
  Clot activity relative to the initial value: 86%
30 mM inhibitor
  Clot activity relative to the initial value: 89%

— patent US8486892B2, “Blood coagulation factor inhibitors” (Novo Nordisk Health Care AG, priority 2008, dated 2013)
